One assay concerns the target T1, human ThRβ1 (Homo sapiens, UniProt P10828).
T1 construct: The cDNAs encoding the full length human ThRα1 and ThRβ1; expressed in transfected cells
T1 sequence (P10828 1-461): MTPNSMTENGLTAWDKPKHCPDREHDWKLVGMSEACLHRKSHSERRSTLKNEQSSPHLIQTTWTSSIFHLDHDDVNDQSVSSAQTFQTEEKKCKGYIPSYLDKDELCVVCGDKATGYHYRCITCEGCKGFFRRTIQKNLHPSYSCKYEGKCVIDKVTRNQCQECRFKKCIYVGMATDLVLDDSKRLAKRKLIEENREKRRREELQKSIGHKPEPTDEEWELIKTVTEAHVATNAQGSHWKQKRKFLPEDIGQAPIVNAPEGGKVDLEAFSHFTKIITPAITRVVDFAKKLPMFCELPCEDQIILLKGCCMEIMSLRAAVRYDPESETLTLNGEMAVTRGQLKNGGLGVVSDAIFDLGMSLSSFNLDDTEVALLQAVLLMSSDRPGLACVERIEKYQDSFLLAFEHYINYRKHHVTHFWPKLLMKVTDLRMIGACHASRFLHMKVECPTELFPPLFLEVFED
Description: Reporter cell line (TRAF) assay, CHO/hThRβ1, alkaline phosphatase reporter. As to conditions: CHO/hThRβ1 reporter cells, 48 hours incubation; read-out: β % agonism. It counts as cell-based. The source says:
Vector Constructs, Generation of Reporter Cell Lines (TRAF), and Assay Procedure.
The cDNAs encoding the full length human ThRα1 and ThRβ1 were cloned in the mammalian expression vector pMT-hGH. The pDR4-ALP reporter vector contains one copy of the direct repeat sequence AGGTCA nnnnAGGTCA, fused upstream of the core promoter sequences of the mouse mammary tumor virus long terminal repeat (MMTV), replacing the glucocorticoid response elements. The DR4-MMTV promoter fragment was then cloned in the 5′ end of the cDNA encoding human placental alkaline phosphatase (ALP), followed in the 3′-end by the polyA-signal sequence of the human growth hormone gene. Chinese hamster ovary (CHO) K1 cells (ATCC No. CCL 61) were transfected in two steps, first with the receptor expression vectors pMT-hThRα1 and pMT-ThRβ1, respectively, and the drug resistance vector pSV2-Neo, and in the second step, with the reporter vector pDR4-ALP and the drug resistance vector pKSV-Hyg. Individual drug resistant clones were isolated and selected based on T3 inducibility. One stable reporter cell clone each of CHO/hThRα1 and CHO/hThRβ1 were chosen for further study in response to various thyroid hormone agonists.
CHO/hThRα1 and CHO/hThRβ1 were seeded in growth medium (Coon's/F12, 10% L-3,5,3′-triiodothyronine and L-thyroxine depleted FCS, 2 mM L-glutamine) in 96-well plates at 20×10^3 cells per well. After 24 hour incubation at 37° C. in humidified chambers, at 5% CO2, conditioned medium was replaced by induction medium (OptiMEM, 2 mM L-glutamine, […] gentamycin) and cells were exposed to the test compounds at serial dilutions, at final DMSO concentration of 0.5%, or to serial dilution of T3 (positive control), to assess agonist activity of test compounds.
In order to examine antagonistic effect of test compounds, CHO/hThRα1 and […] were exposed to serial dilution of the compounds in the presence of 1 nM T3 (CHO/hThRα1) or 3 nM T3 (CHO/hThRβ1).
After 48 hours incubation at 37° C. in humidified chambers at 5% CO2 the level of alkaline phosphatase expressed and secreted into the cell culture medium was analyzed by chemiluminescence on MicroBeta Trilux.

For a further assay, the target named is T2, hTRβ (Homo sapiens, UniProt P10828).
T2 sequence (P10828 1-461): T1 sequence (P10828 1-461)
In words: TR competition binding assay with filter separation. As to conditions: for IC50: competition with tracer 125I-T3, full length hTRβ, read-out: TR-β IC50; for binding to the TR-β receptor and/or agonistic activity compared to compounds lacking a substituent in the 2-position on the indole ring: versus Comparative Examples 1, 3, 4. As to the method:
TR Competition Binding Assay with Filter Separation
Compounds are tested for their ability to compete with the tracer ^125I-T3 for binding to full length hTRα and hTRβ. Receptor extracts and tracer are diluted in assay buffer (17 mM K2HPO4, 3 mM KH2PO4, 400 mM KCl, 1 mM MgCl2, 0.5 mM EDTA and 8.7% glycerol). ^125I-T3 is diluted to a final concentration of 0.2 nM and receptor is diluted to reach a final count in Trilux Microbeta of approximately 10000 ccpm. […] To 96 well microtiter plates are 100 μl tracer, 4 μl test compound dilution series and 100 μl receptor dilution added. The assay plates are incubated at +4° C. over night (app. 16 hrs incubation). Receptor bound and free tracer are separated over a glass fiber filter ([…] B, PerkinElmer)) on a Tomtec Cellharvester with 18 mM K2HPO4, 2 mM KH2PO4, 0.5 mM EDTA wash buffer. The filters are dried at 60° C. for 1 hour and then merged with a scintillant wax (MELTILEX, PerkinElmer) on a Wallac Microsealer before measuring in a Trilux Microbeta. IC50s, the concentration test compound needed to decrease tracer binding by 50 percent, are generated via analysis of data in XLfit version 2.0 or later with a four parameter logistic model.

A word on the IC50: it is the concentration that inhibits the measured activity by half. Regarding `COc1ccc(-c2[nH]c3ccc(Oc4c(Cl)cc(CCC(=O)O)cc4Cl)cc3c2C(C)C)cc1` [Comparative Example 2, 3-{3,5-Dichloro-4-[3-isopropyl-2-(4-methoxy-phenyl)-1H-indol-5-yloxy]-phenyl}-propionic acid, reference compound], the Emax on human ThRβ1 came to 80.2%. Moreover, the IC50 on hTRβ was 51.5 nM.

For the compound `COc1ccc(-c2[nH]c3ccc(Oc4c(Br)cc(CCC(=O)O)cc4Br)cc3c2C)cc1` [Example 3, 3-(3,5-dibromo-4-{[2-(4-methoxyphenyl)-3-methyl-1H-indol-5-yl]oxy}phenyl)propanoic acid], on human ThRβ1, the Emax worked out at 97.5%. Also, at hTRβ, the IC50 turned out to be 7.16 nM and the “binding to the TR-β receptor and/or agonistic activity compared to compounds lacking a substituent in the 2-position on the indole ring” value is on record as “improved binding to the TR-β receptor and/or improved agonistic activity”.

For the compound `CCc1c(-c2ccc3c(c2)OCO3)[nH]c2ccc(Oc3c(Cl)cc(CCC(=O)O)cc3Cl)cc12` [Example 8, 3-(4-{[2-(1,3-benzodioxol-5-yl)-3-ethyl-1H-indol-5-yl]oxy}-3,5-dichlorophenyl)propanoic acid], the Emax on human ThRβ1 turned out to be 76.9%. Further, at hTRβ, the IC50 was determined as 2.5 nM and the “binding to the TR-β receptor and/or agonistic activity compared to compounds lacking a substituent in the 2-position on the indole ring” value is “improved binding to the TR-β receptor and/or improved agonistic activity”.

With `CCc1c(-c2ccc3c(c2)OCO3)[nH]c2ccc(Oc3c(Br)cc(CCC(=O)O)cc3Br)cc12` [Example 9, 3-(4-{[2-(1,3-benzodioxol-5-yl)-3-ethyl-1H-indol-5-yl]oxy}-3,5-dibromophenyl)propanoic acid], at human ThRβ1, the Emax came to 70.3%. Moreover, on hTRβ, the IC50 was found to be 0.33 nM and the “binding to the TR-β receptor and/or agonistic activity compared to compounds lacking a substituent in the 2-position on the indole ring” value is reported as “improved binding to the TR-β receptor and/or improved agonistic activity”.

As for `CCc1c(-c2ccc(OC)cc2)[nH]c2ccc(Oc3c(Br)cc(CCC(=O)O)cc3Br)cc12` [Example 10, 3-(3,5-dibromo-4-{[2-(4-methoxyphenyl)-3-ethyl-1H-indol-5-yl]oxy}phenyl)propanoic acid], at human ThRβ1, the Emax turned out to be 79.7%. Besides, at hTRβ, the half-maximal inhibitory concentration (IC50) was 2.77 nM and the “binding to the TR-β receptor and/or agonistic activity compared to compounds lacking a substituent in the 2-position on the indole ring” value is “improved binding to the TR-β receptor and/or improved agonistic activity”.

With `CCCc1c(-c2ccc(OC)cc2)[nH]c2ccc(Oc3c(Br)cc(CCC(=O)O)cc3Br)cc12` [Example 13, 3-(3,5-dibromo-4-{[2-(4-methoxyphenyl)-3-propyl-1H-indol-5-yl]oxy}phenyl)propanoic acid], on human ThRβ1, the Emax worked out at 70.7%. In addition, at hTRβ, the IC50 is 8.88 nM and the “binding to the TR-β receptor and/or agonistic activity compared to compounds lacking a substituent in the 2-position on the indole ring” value is on record as “improved binding to the TR-β receptor and/or improved agonistic activity”.

On to `CCOC(=O)CNc1cc(C)c(Oc2ccc3[nH]cc(C(C)C)c3c2)c(C)c1` [compound 3, reference compound], for which the Emax at human ThRβ1 came to 69.7%. The half-maximal inhibitory concentration (IC50) at hTRβ came out at 326 nM.

For the compound `Cc1cc(NCC(=O)O)cc(C)c1Oc1ccc2[nH]cc(C(C)C)c2c1` [compound 4, reference compound], the Emax at human ThRβ1 was determined as 39.7%. Moreover, the concentration for half-maximal inhibition (IC50) on hTRβ amounted to 43.1 nM.

The values are drawn from patent US20090233979A1, “Indole Derivatives and Their Use as Thyroid Receptor Ligands” (KARO BIO AB, priority 2006, published 2009).
